The conditions of data set [1]: 298.15 K; for surface tension liquid-gas: Pendant drop shape; for mass density: 101.33 kPa, Liquid.
Data set [2] in a line: xn = mol fraction of the nth substance listed. The following applies: 298.15 K, Pendant drop shape.

For orientation: surface tension liquid-gas means the force per length acting along the surface. The term mass density denotes the mass of a sample divided by its volume.

± gives the expanded uncertainty stated by the source.

For `Cc1ccccc1C` [1,2-dimethylbenzene], in data set [1], the surface tension liquid-gas was 29.35 ± 0.3 mN/m and the mass density was 875.92 ± 0.42 kg/m3.
Regarding `Cc1ccccc1C` [1,2-dimethylbenzene] + CC(C)=O, the surface tension liquid-gas in data set [2] (x2 = 0.0995) is 29.13 ± 0.3 mN/m; in data set [2] (x2 = 0.2016), 28.84 ± 0.3 mN/m; in data set [2] (x2 = 0.3047), 28.45 ± 0.3 mN/m; in data set [2] (x2 = 0.403), 28.07 ± 0.29 mN/m; in data set [2] (x2 = 0.4999), 27.58 ± 0.29 mN/m; in data set [2] (x2 = 0.6017), 26.99 ± 0.29 mN/m. Besides, the surface tension liquid-gas in data set [2] (x2 = 0.6991) turned out to be 26.34 ± 0.28 mN/m; in data set [2] (x2 = 0.7998), 25.65 ± 0.28 mN/m; in data set [2] (x2 = 0.9002) it was 24.86 ± 0.27 mN/m.
Consider `Cc1cccc(C)c1` [1,3-dimethylbenzene], for which, in data set [1], the surface tension liquid-gas amounted to 28.36 ± 0.3 mN/m and the mass density worked out at 859.78 ± 0.49 kg/m3.
In the case of `Cc1cccc(C)c1` [1,3-dimethylbenzene] + CC(C)=O, the surface tension liquid-gas is on record as 28.16 ± 0.3 mN/m in data set [2] (x2 = 0.1027); 27.95 ± 0.3 mN/m in data set [2] (x2 = 0.1996); 27.67 ± 0.29 mN/m in data set [2] (x2 = 0.3049); 27.31 ± 0.29 mN/m in data set [2] (x2 = 0.4029); 26.91 ± 0.29 mN/m in data set [2] (x2 = 0.4993); 26.41 ± 0.28 mN/m in data set [2] (x2 = 0.6024). The figures for the surface tension liquid-gas in data set [2] (x2 = 0.7002), in data set [2] (x2 = 0.801) and in data set [2] (x2 = 0.9014) were 25.86 ± 0.28 mN/m, 25.27 ± 0.27 mN/m and 24.66 ± 0.27 mN/m, respectively.
For `Cc1cccc(C)c1` [1,3-dimethylbenzene] + CCC(C)=O, the surface tension liquid-gas in data set [2] (x2 = 0.1044) is on record as 27.99 ± 0.3 mN/m; in data set [2] (x2 = 0.2015) it was 27.66 ± 0.3 mN/m; in data set [2] (x2 = 0.3028), 27.29 ± 0.29 mN/m; in data set [2] (x2 = 0.4011), 26.93 ± 0.29 mN/m; in data set [2] (x2 = 0.5013), 26.53 ± 0.28 mN/m; in data set [2] (x2 = 0.6009), 26.11 ± 0.28 mN/m. Moreover, the surface tension liquid-gas is given as 25.68 ± 0.28 mN/m in data set [2] (x2 = 0.6999), 25.24 ± 0.27 mN/m in data set [2] (x2 = 0.7999) and 24.76 ± 0.27 mN/m in data set [2] (x2 = 0.9).
`Cc1ccc(C)cc1` [1,4-dimethylbenzene]: in data set [1], the surface tension liquid-gas is on record as 27.89 ± 0.29 mN/m and the mass density came to 856.85 ± 0.46 kg/m3.
In the case of `Cc1ccc(C)cc1` [1,4-dimethylbenzene] + CC(C)=O, the surface tension liquid-gas is given as 27.69 ± 0.29 mN/m in data set [2] (x2 = 0.1027); 27.41 ± 0.29 mN/m in data set [2] (x2 = 0.2022); 27.11 ± 0.29 mN/m in data set [2] (x2 = 0.3029); 26.78 ± 0.28 mN/m in data set [2] (x2 = 0.3993); 26.41 ± 0.28 mN/m in data set [2] (x2 = 0.5009); 25.98 ± 0.28 mN/m in data set [2] (x2 = 0.6006). In addition, the surface tension liquid-gas was determined as 25.51 ± 0.28 mN/m in data set [2] (x2 = 0.7005), 25.03 ± 0.27 mN/m in data set [2] (x2 = 0.8002) and 24.51 ± 0.27 mN/m in data set [2] (x2 = 0.9007).
Turning to `CC(C)=O` [acetone], in data set [1], the surface tension liquid-gas came to 24.01 ± 0.26 mN/m and the mass density is recorded as 784.39 ± 0.61 kg/m3.
Turning to `CCC(C)=O` [butanone], in data set [1], the surface tension liquid-gas is 24.28 ± 0.27 mN/m and the mass density is recorded as 799.62 ± 0.57 kg/m3.
Turning to `CCC(C)=O` [butanone] + Cc1ccc(C)cc1, the surface tension liquid-gas in data set [2] (x1 = 0.0999) is on record as 27.58 ± 0.29 mN/m; in data set [2] (x1 = 0.2007), 27.27 ± 0.29 mN/m; in data set [2] (x1 = 0.3001) it was 26.95 ± 0.29 mN/m; in data set [2] (x1 = 0.402), 26.62 ± 0.28 mN/m; in data set [2] (x1 = 0.5001) it was 26.28 ± 0.28 mN/m; in data set [2] (x1 = 0.6006), 25.91 ± 0.28 mN/m. Also, the surface tension liquid-gas in data set [2] (x1 = 0.7009) is listed as 25.51 ± 0.28 mN/m; in data set [2] (x1 = 0.8009) it was 25.12 ± 0.27 mN/m; in data set [2] (x1 = 0.8999), 24.71 ± 0.27 mN/m.
Turning to `CCC(C)=O` [butanone] + Cc1ccccc1C, the surface tension liquid-gas in data set [2] (x1 = 0.1001) was 29 ± 0.3 mN/m; in data set [2] (x1 = 0.2028), 28.58 ± 0.3 mN/m; in data set [2] (x1 = 0.3001), 28.17 ± 0.3 mN/m; in data set [2] (x1 = 0.4017), 27.68 ± 0.29 mN/m; in data set [2] (x1 = 0.5006) it was 27.19 ± 0.29 mN/m; in data set [2] (x1 = 0.6018) it was 26.65 ± 0.28 mN/m. Also, the surface tension liquid-gas in data set [2] (x1 = 0.7012) was 26.11 ± 0.28 mN/m; in data set [2] (x1 = 0.8006), 25.55 ± 0.28 mN/m; in data set [2] (x1 = 0.8994), 24.96 ± 0.27 mN/m.
